# Assay results taken from PubChem BioAssay AID1845202 (Molecular Pharmacology Branch, DTP, NCI, 2023).
# System: DMS 114 tumor spheroids, viability % test/control
# Assay: Anticancer human tumor DMS 114 cell line growth inhibition;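 note: spheroids exposed to compounds for 7 days before read-out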;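 for viability, T/C: luminescence used as a proxy for viable cells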
# Conditions: spheroids with HUVEC and MSC; for IC50: curve of first compound; for viability, T/C: stronger effect = lower value
# Method in brief: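 Complex tumor spheroids combined malignant cells with endothelial cells and mesenchymal stem cells. DNA-damaging drugs and DNA repair inhibitors were tested alone and in combination, at half-log dilutions down from clinical Cmax (top 10 microM if Cmax unknown), 0.25% DMSO final.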
# [1] = second compound 1 µM, first compound 0.00949 µM
# [2] = second compound 1 µM, first compound 0.03 µM
# [3] = second compound 1 µM, first compound 0.0949 µM
# [4] = second compound 1 µM, first compound 0.3 µM
# [5] = second compound 1 µM, first compound 0.949 µM
# [6] = second compound 1 µM, first compound 3 µM
# [7] = second compound 3.16 µM, first compound 0.00949 µM
# [8] = second compound 3.16 µM, first compound 0.03 µM
# [9] = second compound 3.16 µM, first compound 0.0949 µM
# [10] = second compound 3.16 µM, first compound 0.3 µM
# [11] = second compound 3.16 µM, first compound 0.949 µM
# [12] = second compound 3.16 µM, first compound 3 µM
# [13] = second compound 10 µM, first compound 0.00949 µM
# [14] = second compound 10 µM, first compound 0.03 µM
# [15] = second compound 10 µM, first compound 0.0949 µM
# [16] = second compound 10 µM, first compound 0.3 µM
# [17] = second compound 10 µM, first compound 0.949 µM
# [18] = second compound 10 µM, first compound 3 µM
# [19] = second compound 31.6 µM, first compound 0.00949 µM
# [20] = second compound 31.6 µM, first compound 0.03 µM
# [21] = second compound 31.6 µM, first compound 0.0949 µM
# [22] = second compound 31.6 µM, first compound 0.3 µM
# [23] = second compound 31.6 µM, first compound 0.949 µM
# [24] = second compound 31.6 µM, first compound 3 µM
# [25] = second compound 100 µM, first compound 0.00949 µM
# [26] = second compound 100 µM, first compound 0.03 µM
# [27] = second compound 100 µM, first compound 0.0949 µM
# [28] = second compound 100 µM, first compound 0.3 µM
# [29] = second compound 100 µM, first compound 0.949 µM
# [30] = second compound 100 µM, first compound 3 µM
# [31] = second compound 30 pM, first compound 0.0316 µM
# [32] = second compound 30 pM, first compound 0.1 µM
# [33] = second compound 30 pM, first compound 0.316 µM
# [34] = second compound 30 pM, first compound 1 µM
# [35] = second compound 30 pM, first compound 3.16 µM
# [36] = second compound 30 pM, first compound 10 µM
# [37] = second compound 94.9 pM, first compound 0.0316 µM
# [38] = second compound 94.9 pM, first compound 0.1 µM
# [39] = second compound 94.9 pM, first compound 0.316 µM
# [40] = second compound 94.9 pM, first compound 1 µM
# [41] = second compound 94.9 pM, first compound 3.16 µM
# [42] = second compound 94.9 pM, first compound 10 µM
# [43] = second compound 0.0003 µM, first compound 0.0316 µM
# [44] = second compound 0.0003 µM, first compound 0.1 µM
# [45] = second compound 0.0003 µM, first compound 0.316 µM
# [46] = second compound 0.0003 µM, first compound 1 µM
# [47] = second compound 0.0003 µM, first compound 3.16 µM
# [48] = second compound 0.0003 µM, first compound 10 µM
# [49] = second compound 0.000949 µM, first compound 0.0316 µM
# [50] = second compound 0.000949 µM, first compound 0.1 µM
# [51] = second compound 0.000949 µM, first compound 0.316 µM
# [52] = second compound 0.000949 µM, first compound 1 µM
# [53] = second compound 0.000949 µM, first compound 3.16 µM
# [54] = second compound 0.000949 µM, first compound 10 µM
# [55] = second compound 0.003 µM, first compound 0.0316 µM
# [56] = second compound 0.003 µM, first compound 0.1 µM
# [57] = second compound 0.003 µM, first compound 0.316 µM
# [58] = second compound 0.003 µM, first compound 1 µM
# [59] = second compound 0.003 µM, first compound 3.16 µM
# [60] = second compound 0.003 µM, first compound 10 µM
smiles,measurement,setting,value
Cc1sc2c(c1C)C(c1ccc(Cl)cc1)=NC(CC(=O)Nc1ccc(O)cc1)c1nnc(C)n1-2 (stereo not given) + Cn1nnc2c(C(N)=O)ncn2c1=O,IC50,second compound 1 µM,0.158 µM
same,IC50,second compound 3.16 µM,0.194 µM
same,IC50,second compound 10 µM,0.17 µM
same,IC50,second compound 31.6 µM,0.167 µM
same,IC50,second compound 100 µM,0.116 µM
same,"viability, T/C",[1],98.8%
same,"viability, T/C",[2],101%
same,"viability, T/C",[3],64.5%
same,"viability, T/C",[4],29.9%
same,"viability, T/C",[5],11.3%
same,"viability, T/C",[6],6.69%
same,"viability, T/C",[7],104%
same,"viability, T/C",[8],103%
same,"viability, T/C",[9],81.4%
same,"viability, T/C",[10],30.7%
same,"viability, T/C",[11],10.7%
same,"viability, T/C",[12],6.68%
same,"viability, T/C",[13],102%
same,"viability, T/C",[14],108%
same,"viability, T/C",[15],71.6%
same,"viability, T/C",[16],28.1%
same,"viability, T/C",[17],10.7%
same,"viability, T/C",[18],4.92%
same,"viability, T/C",[19],114%
same,"viability, T/C",[20],100%
same,"viability, T/C",[21],71%
same,"viability, T/C",[22],28.6%
same,"viability, T/C",[23],9.45%
same,"viability, T/C",[24],4.67%
same,"viability, T/C",[25],93.9%
same,"viability, T/C",[26],93%
same,"viability, T/C",[27],55.1%
same,"viability, T/C",[28],18.9%
same,"viability, T/C",[29],6.62%
same,"viability, T/C",[30],2.68%
COc1cc(C)[nH]c(=O)c1CN1CCc2c(Cl)cc(C(OC)C3COC3)c(Cl)c2C1=O (stereo not given) + COc1cc2c(cc1O)CCNC21CSC2c3c(OC(C)=O)c(C)c4c(c3C(COC1=O)N1C(O)C3Cc5cc(C)c(OC)c(O)c5C(C21)N3C)OCO4,IC50,second compound 30 pM,> 10 µM
same,IC50,second compound 94.9 pM,> 10 µM
same,IC50,second compound 0.0003 µM,< 0.0316 µM
same,IC50,second compound 0.000949 µM,< 0.0316 µM
same,IC50,second compound 0.003 µM,< 0.0316 µM
same,"viability, T/C",[31],118%
same,"viability, T/C",[32],90.5%
same,"viability, T/C",[33],83.5%
same,"viability, T/C",[34],82.1%
same,"viability, T/C",[35],74.8%
same,"viability, T/C",[36],69.6%
same,"viability, T/C",[37],89.1%
same,"viability, T/C",[38],85.9%
same,"viability, T/C",[39],86.7%
same,"viability, T/C",[40],66.2%
same,"viability, T/C",[41],65.1%
same,"viability, T/C",[42],56%
same,"viability, T/C",[43],38.9%
same,"viability, T/C",[44],43.3%
same,"viability, T/C",[45],41.4%
same,"viability, T/C",[46],34.7%
same,"viability, T/C",[47],28.9%
same,"viability, T/C",[48],26.6%
same,"viability, T/C",[49],2.76%
same,"viability, T/C",[50],4.07%
same,"viability, T/C",[51],4.68%
same,"viability, T/C",[52],3.28%
same,"viability, T/C",[53],2.76%
same,"viability, T/C",[54],1.64%
same,"viability, T/C",[55],0.25%
same,"viability, T/C",[56],0.27%
same,"viability, T/C",[57],0.26%
same,"viability, T/C",[58],0.24%
same,"viability, T/C",[59],0.24%
same,"viability, T/C",[60],0.29%
CNCc1ccc(-c2cc(-c3nc(-c4ccc(S(=O)(=O)C(C)C)cc4)cnc3N)on2)cc1 + Cn1nnc2c(C(N)=O)ncn2c1=O,IC50,second compound 1 µM,0.186 µM
same,IC50,second compound 3.16 µM,0.178 µM
same,IC50,second compound 10 µM,0.175 µM
same,IC50,second compound 31.6 µM,0.161 µM
same,IC50,second compound 100 µM,0.0916 µM
same,"viability, T/C",[1],103%
same,"viability, T/C",[2],94.4%
same,"viability, T/C",[3],80.9%
same,"viability, T/C",[4],28.3%
same,"viability, T/C",[5],5.64%
same,"viability, T/C",[6],0.18%
same,"viability, T/C",[7],102%
same,"viability, T/C",[8],103%
same,"viability, T/C",[9],77.6%
same,"viability, T/C",[10],27%
same,"viability, T/C",[11],3.9%
same,"viability, T/C",[12],0.24%
same,"viability, T/C",[13],101%
same,"viability, T/C",[14],99.3%
same,"viability, T/C",[15],72.7%
same,"viability, T/C",[16],30.2%
same,"viability, T/C",[17],2.75%
same,"viability, T/C",[18],0.19%
same,"viability, T/C",[19],114%
same,"viability, T/C",[20],92%
same,"viability, T/C",[21],75.8%
same,"viability, T/C",[22],22.4%
same,"viability, T/C",[23],2.81%
same,"viability, T/C",[24],0.23%
same,"viability, T/C",[25],89.7%
same,"viability, T/C",[26],83.3%
same,"viability, T/C",[27],47.4%
same,"viability, T/C",[28],16.1%
same,"viability, T/C",[29],2.42%
same,"viability, T/C",[30],0.69%
[2H]c1nc(C)nc([2H])c1-c1cc(NC[C@@H](C)c2cccc3c(C(=O)NC)ccnc23)ncn1 + COc1cc2c(cc1O)CCNC21CSC2c3c(OC(C)=O)c(C)c4c(c3C(COC1=O)N1C(O)C3Cc5cc(C)c(OC)c(O)c5C(C21)N3C)OCO4,IC50,second compound 30 pM,> 10 µM
same,IC50,second compound 94.9 pM,> 10 µM
same,IC50,second compound 0.0003 µM,< 0.0316 µM
same,IC50,second compound 0.000949 µM,< 0.0316 µM
same,IC50,second compound 0.003 µM,< 0.0316 µM
same,"viability, T/C",[31],105%
same,"viability, T/C",[32],113%
same,"viability, T/C",[33],106%
same,"viability, T/C",[34],109%
same,"viability, T/C",[35],107%
same,"viability, T/C",[36],97.6%
same,"viability, T/C",[37],111%
same,"viability, T/C",[38],107%
same,"viability, T/C",[39],108%
same,"viability, T/C",[40],111%
same,"viability, T/C",[41],98.3%
same,"viability, T/C",[42],98%
same,"viability, T/C",[43],44.4%
same,"viability, T/C",[44],38.9%
same,"viability, T/C",[45],39%
same,"viability, T/C",[46],42.1%
same,"viability, T/C",[47],37.4%
same,"viability, T/C",[48],42.4%
same,"viability, T/C",[49],2.57%
same,"viability, T/C",[50],4.99%
same,"viability, T/C",[51],2.84%
same,"viability, T/C",[52],4.1%
same,"viability, T/C",[53],3.19%
same,"viability, T/C",[54],3.15%
same,"viability, T/C",[55],0.21%
same,"viability, T/C",[56],0.22%
same,"viability, T/C",[57],0.17%
same,"viability, T/C",[58],0.21%
same,"viability, T/C",[59],0.16%
same,"viability, T/C",[60],0.28%
